Assay results from patent US9718859B2, “Glycogen synthase kinase-3 inhibitors” (Ramot at Tel-Aviv University Ltd., priority 2013, dated 2017).
“Also recorded” adds a separate entry of the source. Square brackets hold non-standard residues; d marks the D form. Ends that are not written are not given here. Peptide text beside a SMILES is read from it. * marks the point of attachment. Myristoyl = CCCCCCCCCCCCCC(=O)*; pS = N[C@@H](COP(=O)(O)O)C(=O)O

Legend:
GSK-3 = GSK-3 (Homo sapiens, UniProt P49841); conditions: Licht-Murava et al. 2011; cited from earlier work
Sequence of GSK-3 (P49841 whole entry): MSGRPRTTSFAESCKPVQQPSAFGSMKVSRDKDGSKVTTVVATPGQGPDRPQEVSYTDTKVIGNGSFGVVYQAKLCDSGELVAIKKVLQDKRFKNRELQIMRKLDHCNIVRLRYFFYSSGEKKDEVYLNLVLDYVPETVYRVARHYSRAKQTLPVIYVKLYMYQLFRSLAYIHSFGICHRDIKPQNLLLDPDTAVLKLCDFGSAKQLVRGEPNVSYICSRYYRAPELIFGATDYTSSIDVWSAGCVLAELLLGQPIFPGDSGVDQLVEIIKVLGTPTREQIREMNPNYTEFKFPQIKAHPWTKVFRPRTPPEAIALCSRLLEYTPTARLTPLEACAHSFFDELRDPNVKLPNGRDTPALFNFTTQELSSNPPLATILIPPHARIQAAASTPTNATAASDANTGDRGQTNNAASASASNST

GSK-3β (WT) [1] = target: T1, GSK-3β (WT) (Homo sapiens, UniProt P49841); assay: In vitro kinase assay: phosphorylation of the peptide as a substrate by GSK-3β (WT), 32P-γ-ATP; assay type: biochemical; conditions: WT GSK-3β, FIG. 3 and FIG. 5
T1 construct: made in house
T1 sequence (P49841 whole entry): as above
Method: (§1) GSK-3β (WT) was incubated with pIRS-1, RREGGMSRPAS(p)VDG (SEQ ID NO:55), as an exemplary substrate, in a reaction mixture (50 mM Tris-HCl, pH 7.3, 10 mM magnesium acetate, and 0.01% β-mercaptoethanol) together with 100 μM 32P[γ-ATP] (0.5 μCi/assay) for 15 minutes. Reactions were stopped by spotting on p81 paper (Whatman), washed with phosphoric acid, and counted for radioactivity as previously described [Ilouz et al. (2006) supra].
(§2) In assays conducted with GSK-3 mutant, the GSK-3β proteins (WT or mutant) were incubated with the indicated substrate in a reaction mixture (50 mM Tris-HCl, pH 7.3, 10 mM magnesium acetate, and 0.01% β-mercaptoethanol) together with 100 μM ^32P[γ-ATP] (0.5 μCi/assay) for 15 minutes. Reactions were stopped by spotting on p81 paper (Whatman) washed with phosphoric acid, and counted for radioactivity as previously described [Ilouz et al. (2006) supra]. In assays from cells overexpressing GSK-3 proteins, GSK-3 proteins were partially purified by DE-52 minicolumn and subjected to in vitro kinase assays as described. The activity of the endogenous GSK-3 that was determined in cells transfected with the pCMV4 vector was subtracted from the activity values obtained for WT and mutants.
Thus, in vitro kinase assays as described hereinabove were performed in the presence of pIRS-1 substrate or L807 and phosphorylation was determined. […]

GSK-3β F93A mutant [2] = target: T2, GSK-3β F93A mutant (Homo sapiens, UniProt P49841, F93A); assay: In vitro kinase assay: phosphorylation of the peptide as a substrate by the GSK-3β F93A mutant; assay type: biochemical; conditions: FIG. 5
T2 construct: made in house, partially purified on a DE-52 minicolumn
T2 sequence (P49841 whole entry F93A): as the sequence (P49841 whole entry) above, with F93A counted along it
Method: (§3) GSK-3β F93A mutant (in which Phe93 was replaced by alanine) was prepared as described in WO 2012/101599.
as §2
Thus, L807 and the substrate pHSF-1 were both tested in in vitro kinase assays as described hereinabove, for the ability of GSK-3β (WT) and its F93A mutant to phosphorylate these peptides.

GSK-3β F93A mutant [3] = target: T2, GSK-3β F93A mutant; assay: In vitro kinase assay: inhibition of the GSK-3β F93A mutant, pIRS-1 as substrate; assay type: biochemical; conditions: FIG. 6
Method: as §3, §2
In vitro kinase assays conducted for evaluating the inhibition activity of L807 and pL807 of the F93A mutant were also conducted, using pIRS-1 as a substrate.

Aβ loads = assay: Congo red staining of Aβ loads in brain sections of 5XFAD mice; assay type: in vivo, mouse; conditions: intranasal 60 μg/dose for 120 days, FIG. 8B
Method: 5XFAD mice were purchased from Jackson laboratory and maintained at an animal house. The 5XFAD mice were randomly assigned to two groups (6 animals each). Treatment started at the age of 2 months, by administering, intranassally, L807-mts (60 μg) (5 μl solution in each nostril) every other day for 120 days. Saline-perfused brains of the tested mice were rapidly excised and frozen in N2. Brains were divided into the two hemispheres: the left hemisphere was taken for immunohistology and the right hemisphere for immunoblot analysis. Coronal brains sections (14 μm) were cut by cryostat at -20° C. Slices at Bregma -1.58 mm were fixed (using 4% PFA) and stained with Congo red dye (Sigma-Aldrich) or with an antigen-retrieval method with anti-Aβ 6E10 antibody (SIG-39300) and visualized by fluorescence microscopy. Quantification of Aβ depositions was done for the whole hippocampus area in a blinded fashion using Imaging Research software from the NIH in an unbiased stereological approach. Mice were scarified and coronal brain sections were stained with congo red dye and Aβ loads were visualized by fluorescence microscopy.

5XFAD mice = assay: Contextual fear conditioning test in 5XFAD mice; assay type: in vivo, mouse; conditions: intranasal, 60 μg/dose every other day for 120 days, FIG. 8A
Method: 5XFAD mice were purchased from Jackson laboratory and maintained at an animal house. The 5XFAD mice were randomly assigned to two groups (6 animals each). Treatment started at the age of 2 months, by administering, intranassally, L807-mts (60 μg) (5 μl solution in each nostril) every other day for 120 days.
A contextual fear conditioning test (FCT) was thereafter conducted as described in Saura et al. (2005) J. Neurosci. 25(29), 6755-6764. Briefly, mice were subjected to an unconditioned electric stimulus (US footshock; 1 s/1 mA) in a training pre-session. Twenty-four hours later, FCT was measured by scoring freezing behavior (the absence of all but respiratory movement) for 180 seconds using a FreezeFrame automated scoring system (Coulbourn Instruments). All experiments were in compliance with protocols approved by the TAU animal care committee.
Mice (two-month old) were treated intranasally with L807-mts (60 μg/dose) for 120 days. At the end of the experiment mice were subjected to the contextual fear conditioning test (FCT), a behavioral test widely used to evaluate associative learning and memory (see, Saura et al. (2005) supra).

GSK-3β (WT) [4] = target: T1, GSK-3β (WT); assay: In vitro kinase assay: inhibition of GSK-3β (WT), pIRS-1 as substrate; assay type: biochemical; conditions: FIG. 4
Method: Bacterially expressed Purified GSK-3β Wild-Type (WT) was prepared as previously described (Eldar-Finkelman 1996 PNAS).
as §1
The ability of the novel peptides described in Example 1 to inhibit GSK-3β was determined by in vitro kinase assays as described hereinabove. The results are presented in FIGS. 2A-B. Substrate phosphorylation obtained in reaction with no inhibitor was defined as 100% (Con), and the results presented are means of two independent experiments each performed in duplicate±SEM.

GSK-3β F93A mutant [5] = target: T2, GSK-3β F93A mutant; conditions: Licht-Murava et al. 2011; cited from earlier work

## C[C@H](NC(=O)[C@H](CCC(=O)O)NC(=O)[C@@H](N)CCCCN)C(=O)N1CCC[C@H]1C(=O)N1CCC[C@H]1C(=O)N[C@@H](C)C(=O)N1CCC[C@H]1C(=O)N1CCC[C@H]1C(=O)N[C@@H](CCC(N)=O)C(=O)N[C@@H](COP(=O)(O)O)C(=O)N1CCC[C@H]1C(=O)O [L803, KEAPPAPPQS(p)P] (H-KEAPPAPPQ[pS]P-OH; N-terminus and C-terminus assumed)
GSK-3
  Interaction with F93 of GSK-3, binding mode as previously reported: contacts GSK-3 residue F93

## C[C@H](NC(=O)[C@H](CCC(=O)O)NC(=O)[C@@H](N)CCCCN)C(=O)N1CCC[C@H]1C(=O)N1CCC[C@H]1C(=O)N[C@@H](CO)C(=O)N1CCC[C@H]1C(=O)N1CCC[C@H]1C(=O)N[C@@H](CCC(N)=O)C(=O)N[C@@H](COP(=O)(O)O)C(=O)N1CCC[C@H]1C(=O)O [L807, KEAPPSPPQS(p)P] (H-KEAPPSPPQ[pS]P-OH; N-terminus and C-terminus assumed)
GSK-3β (WT) [1]
  Peptide phosphorylation by GSK-3β (substrate or not): is a substrate of GSK-3; also recorded: phosphorylated
GSK-3β F93A mutant [2]
  Peptide phosphorylation by F93A mutant: phosphorylated
GSK-3β F93A mutant [3]
  Inhibition of the F93A mutant: no inhibition

## CCCCCCCCCCCCCC(=O)NCC(=O)N[C@@H](CCCCN)C(=O)N[C@@H](CCC(=O)O)C(=O)N[C@@H](C)C(=O)N1CCC[C@H]1C(=O)N1CCC[C@H]1C(=O)N[C@@H](CO)C(=O)N1CCC[C@H]1C(=O)N1CCC[C@H]1C(=O)N[C@@H](CCC(N)=O)C(=O)N[C@@H](COP(=O)(O)O)C(=O)N1CCC[C@H]1C(=O)O [L807-mts, myristic acid-GKEAPPSPPQS(p)P] (Myristoyl-GKEAPPSPPQ[pS]P-OH; C-terminus assumed)
Aβ loads
  Amount and mean sizes of Aβ loads: largely reduced
5XFAD mice
  Freezing behavior, performance relative to wild-type (WT) mice: up to 81%±14%

## KEAPPS(p)PPQS(p)P (KEAPP[pS]PPQ[pS]P) [pL807, double phosphorylated L807]
GSK-3β (WT) [1]
  Peptide phosphorylation by GSK-3β (substrate or not): is not a substrate of GSK-3
GSK-3β (WT) [4]
  Inhibition of GSK-3: does not inhibit GSK-3

## RREGGMSRPAS(p)VDG (RREGGMSRPA[pS]VDG) [pIRS-1, GSK-3 substrate peptide from the insulin receptor substrate-1]
GSK-3β F93A mutant [5]
  Peptide phosphorylation by F93A mutant (literature): not phosphorylated
